Here are results for twelve molecules from US20060134119A1, “Drugs containing galectin 9” (priority 2003, published 2006).

Residues, ends and D or L forms follow the SMILES beside them. *: point of attachment. Cbz = O=C(OCc1ccccc1)*; CH2F = FC*

Data set [1] relates to MOLT-4 cells. The experiment in a line: Inhibition of Gal-9- or other stimulus-induced apoptosis by lactose, caspase and calpain inhibitors. The conditions noted are these: for inhibition of TNF-α-induced apoptosis / inhibition of anti-Fas Ab-induced apoptosis / inhibition of DEX-induced apoptosis / inhibition of C2 ceramide-induced apoptosis: caspase inhibitors; for inhibition of TNF-α-induced apoptosis / inhibition of anti-Fas Ab-induced apoptosis / inhibition of DEX-induced apoptosis / inhibition of Gal-9-induced apoptosis / inhibition of C2 ceramide-induced apoptosis: FIG. 5; for inhibition of Gal-9-induced apoptosis: inhibitor at 10 μM, added 1 hr before Gal-9 stimulation; for effect on pro-apoptosis activity by Gal-9: 30 mM lactose or sucrose, FIG. 2. The format is cell-based, human. Here is the method:
MOLT-4 (T cell), Jurkat (T cell), BALL-1 (B cell), THP-1 (acute monocytic leukemia derived cell), and HL60 (acute promyelotic leukemia derived cell) cells were obtained from American Type Culture Collection (ATCC). All the cell lines were maintained in an RPMI-1640 medium (Sigma, St. Louis, US) supplemented with 10% FCS in 5% Co2 at 37° C. Lactose (30 mM) was added to the culture medium to inhibit Gal-9 activity. The same concentration of sucrose was used as a control. Cells were incubated with Gal-9 in the presence of Z-VAD-FMK (pan-caspase inhibitor), Z-YVAD-FMK (caspase-1 inhibitor), Z-IETD-FMK (caspase-8 inhibitor), Z-LEHD-FMK (caspase-9 inhibitor), Z-ABVD-FMK (caspase-lo inhibitor), or Z-LLY-FMK (calpain inhibitor) (BioVision, CA, US), at 10 μM, and the participation of caspase or calpain in the Gal-9-induced apoptosis was examined. Z-FA-FMK (BioVision, CA, US) was used as a control (Vu C. C. et al., J. Biol. Chem., 276: 37602 (2001) and Sweeney E. A. et al., FEBs Lett., 425: 61 (1998)). Each inhibitor was added 1 hr before Gal-9 stimulation. The following agents were purchased from suppliers below: DEX (BioVision, CA, US), anti-Fas Ab (clone CH-11, MBL), TNFα (Genzyme, Cambridge, Mass., US), C2 ceramide (SIGMA), and etoposide (Biovision).

The test system of data set [2] is MOLT-4 cells. Described as above. The format is cell-based, human. Conditions: inhibitor at different concentrations; FIG. 6, FIG. 7.
In data set [3] the test system is MOLT-4 cells. Kind of data set: Ca2+ influx, Fluo-3 assay by flow cytometry. The format is cell-based, human. Conditions: FIG. 8; for effect on calcium influx induced by Gal-9: 30 mM lactose or sucrose. Here is the method: Cells (approx. 10^6 to 10^7 cells/mL) in the culture medium (10% FCS, RPMI-1640 containing 10 mM HEPES, pH 7.2) were incubated with fluo-3 AM (final concentration 10 μM, Dojindo, Kumamoto, Japan), an intracellular calcium indicator, at 37° C. for 30 min (Sharp, B. M. et al., Proc. Natl. Acad. Sci. USA, 93: 8294 (1996)). Then the cells were washed and resuspended in the culture medium (final concentration, approx. 2×10^5 cells/mL per sample). Intracellular calcium level was measured by flow cytometry. The resting cells were stimulated at 1 min after their fluorescence intensities were measured.
Next, sequential measurement was restarted until different stimuli were applied. In lactose inhibition assay, cells were stimulated in the presence of 30 mM lactose. Sucrose (30 mM) was used as a control (Sano, H. et al., J. Imnunol., 165: 2156 (2000)). A23187 (calcium ionophore, final concentration 5 ng/mL, Wako, Osaka, Japan) was used as a positive control.

Another data set deals with K-562 leukemic cells. Conditions: 16 hr incubation with 1 mM galectin-9, PI, FACS. Here is the method: (§1) Cytotoxicities in Jurkat T cells, K-562 leukemic cells, and normal lymphocytes were measured by flow cytometry analysis using PI. That is, PI invades into the damaged target cells when PI is added for the last 15 min of 16 hr incubation with 1 mM galectin-9. Fluorescence generated by PI is measured by FACS. Untreated cells were used as a negative control group, formalin-fixed cells as a 100% dead cell group, and H2O2 (hydrogen peroxide solution)-treated cells as a positive control group, respectively.

In the next data set the test system is normal lymphocytes. Conditions: Normal Lymphocyte; 16 hr incubation with 1 mM galectin-9; PI, FACS. Here is the method: as §1
Another data set concerns Jurkat T cells. Conditions: 16 hr incubation with 1 mM galectin-9, PI, FACS. As to the method: as §1
The next data set deals with CD8+ T cells. Kind of data set: Apoptosis induction in peripheral blood CD8+ T cells, resting or anti-CD3 Ab-activated. The format is cell-based, human. The conditions noted are these: galectin (+), 1 μM rGal-9. Here is the method:
(§2) To prepare a well plate coated with anti-CD3 Ab, 24 well palates were incubated with TBS solution (pH 8.0) containing 3 μg/mL anti-CD3 Ab (Inmunotech, Marseille, France) per well at 4° C. overnight, and each well was washed with PBS after removing anti-CD3 Ab solution.
(§3) Mononuclear leukocyte fractions were isolated from heparinized blood using HISTOPAQUE (Registered trademark, SIGMA). CD4-Positive Isolation Kit (DYNAL, Oslo, Norway) was used for isolation of CD4+ T cells and Dynabeads M-450 CD8 (Registered trademark, DYNAL, Oslo, Norway) for isolation of CD8+ T cells, respectively, according to the manufacturer's instructions.
(§4) To activate T cells, CD4+ or CD8+ cells at 1×10^6 cells/mL in an RPMI-1640 medium containing 10% FCS were incubated on the plate coated with anti-CD3 Ab for 20 to 24 hr at 37° C. in a 5% CO2 incubator, and incubated with rGal-9 [(His)6-Gal-9(S)] at 37° C. in a 5% CO2 incubator. Then apoptosis assay was conducted as described in (c). That is, cells were incubated with 50 μg/mL PI (SIGMA) at 37° C. for 10 min in the dark. Stained cells were analyzed by flow cytometry (Sandstrom, K. et al., J Immunol Methods, 240: 55 (2000) and Zhang L. et al., Cancer Lett, 142: 129 (1999)).
(§5) Apoptosis assay was also conducted for non-activated (resting) T cells as described above after incubating them with rGal-9 [(His)6-Gal-9(S)] at 37° C. in a 5% Co2 incubator.
(§6) For comparison, galectin-1 and -3 treated cells were analyzed.
(§7) Next, apoptosis induction by Gal-9 in human peripheral blood T cells was examined. T cells were separated into CD4+ and CD8+ T cells followed by incubation in the presence or absence of anti-CD3 Ab. Resting T cells and anti-CD3 Ab-activated T cells were incubated with 1 μM rGal-9.

The subject of the next data set is CD4+ T cells. Kind of data set: Apoptosis induction in peripheral blood CD4+ T cells, resting or anti-CD3 Ab-activated. The format is cell-based, human. Conditions: galectin (+), 1 μM rGal-9. Here is the method:
as §2, §3, §4, §5, §6, §7

A further data set concerns CD4 T Cell. Kind of data set: Apoptosis induction in non-activated normal CD4 T cells (Table 4). The format is cell-based. The conditions noted are these: 1 μM galectin-9, 1 μM galectin-3. Here is the method: (§8) For example, measurements of apoptosis induction in the presence of 1 μM galectin-9 are as shown in Table 4 below (also 1 μM for galectin-3 in Table 4).
In the next data set the test system is CD8 T Cell. Kind of data set: Apoptosis induction in non-activated normal CD8 T cells (Table 4). It counts as cell-based. The conditions noted are these: 1 μM galectin-9, 1 μM galectin-3. Here is the method:
as §8

In a further data set the test system is MM-RU. The experiment in a line: Induction of cell aggregation in MM-RU. It counts as cell-based, human. Conditions: controls, at the dose of at least 1 μM. Here is the method:
Recombinant galectin-9 prepared via gene transfer into E. coli was added to MM-RU exogenously, and the efficacy of galectin-9 was then examined. As a result, galectin-9 induced aggregation of MM-RU at the concentration of 0.1 μM or higher. In addition, the galectin-9 efficacy was concentration-dependent, and significant between 0.3-1.0 μM.

Setting [4] is: CD3 (+) cells activated on anti-CD3 Ab-coated plates.
The mark [5] stands for this setting: CD3 (−) untreated resting cells.

As to `CC[C@H](C)[C@H](NC(=O)OCc1ccccc1)C(=O)N[C@@H](CCC(=O)OC)C(=O)N[C@H](C(=O)N[C@@H](CC(=O)OC)C(=O)CF)[C@@H](C)O` [Z-IETD-FMK] (Cbz-IE(OMe)TD(OMe)-CH2F), in the data set with MOLT-4 cells [1], the “inhibition of TNF-α-induced apoptosis” value is on record as “inhibited” and the “inhibition of anti-Fas Ab-induced apoptosis” value was “inhibited”.

Consider `COC(=O)CC[C@H](NC(=O)[C@H](C)NC(=O)OCc1ccccc1)C(=O)N[C@H](C(=O)N[C@@H](CC(=O)OC)C(=O)CF)C(C)C` [Z-AEVD-FMK] (Cbz-AE(OMe)VD(OMe)-CH2F), for which, in the data set on MOLT-4 cells [1], the “inhibition of TNF-α-induced apoptosis” value was “inhibited” and the “inhibition of anti-Fas Ab-induced apoptosis” value is on record as “inhibited”.

For `COC(=O)C[C@H](NC(=O)[C@H](C)NC(=O)[C@@H](NC(=O)[C@H](Cc1ccc(O)cc1)NC(=O)OCc1ccccc1)C(C)C)C(=O)CF` [Z-YVAD-FMK], in the data set with MOLT-4 cells [1], the “inhibition of DEX-induced apoptosis” value was “inhibited” and the “inhibition of Gal-9-induced apoptosis” value was “inhibited”. For the same molecule, the “inhibition of Gal-9-induced apoptosis, dose dependence” value (from here on “inhibition … dose dependence”) in the data set on MOLT-4 cells [2] is recorded as “in a dose-dependent manner”.

With `COC(=O)C[C@H](NC(=O)[C@H](C)NC(=O)[C@@H](NC(=O)OCc1ccccc1)C(C)C)C(=O)CF` [Z-VAD-FMK] (Cbz-Val-Ala-Asp(OMe)-CH2F), in the data set with MOLT-4 cells [1], the “inhibition of C2 ceramide-induced apoptosis” value was “inhibition”, the “inhibition of DEX-induced apoptosis” value is reported as “inhibition”, the “inhibition of TNF-α-induced apoptosis” value is given as “inhibition” and the “inhibition of anti-Fas Ab-induced apoptosis” value was “inhibition”. Moreover, in the data set on MOLT-4 cells [1], the “inhibition of Gal-9-induced apoptosis” value is “almost completely inhibited”. In the data set with MOLT-4 cells [2], the “inhibition … dose dependence” value is listed as “in a dose-dependent manner”.

Regarding `OC[C@H]1O[C@@](CO)(O[C@H]2O[C@H](CO)[C@@H](O)[C@H](O)[C@H]2O)[C@@H](O)[C@@H]1O` [sucrose], the “effect on pro-apoptosis activity by Gal-9” value with MOLT-4 cells [1] is recorded as “not”. The “effect on calcium influx induced by Gal-9” value with MOLT-4 cells [3] is recorded as “not inhibited”.

As to `CNc1ccc2oc(C[C@H]3O[C@@]4(CC[C@H]3C)O[C@H]([C@H](C)C(=O)c3ccc[nH]3)[C@H](C)C[C@H]4C)nc2c1C(=O)O` [A23187], the calcium influx result in the data set with MOLT-4 cells [3] (Fluo-3 assay, A23187 final concentration 5 ng/mL) is “significantly induced”.

Turning to `COC(=O)CC[C@H](NC(=O)[C@H](CC(C)C)NC(=O)OCc1ccccc1)C(=O)N[C@@H](Cc1cnc[nH]1)C(=O)N[C@@H](CC(=O)OC)C(=O)CF` [Z-LEHD-FMK] (Cbz-LE(OMe)HD(OMe)-CH2F), the “inhibition of C2 ceramide-induced apoptosis” value in the data set on MOLT-4 cells [1] is listed as “inhibited”.

For `OO` [H2O2, hydrogen peroxide solution, reference compound], the figures for the “cytotoxicity, 16 hours” value in the data set on K-562 leukemic cells, in the data set on normal lymphocytes and with Jurkat T cells were 99.2, 96.8 and 97.7, respectively.

Regarding `CC(C)CC(NC(=O)OCc1ccccc1)C(=O)NC(CC(C)C)C(=O)NC(Cc1ccc(O)cc1)C(=O)CF` (stereo not drawn) [Z-LLY-FMK] (Cbz-Leu-Leu-Tyr-CH2F; configuration not given here), the “inhibition … dose dependence” value in the data set with MOLT-4 cells [2] is reported as “in a dose dependent manner”.

For the molecule “Galectin-3: galectin used for comparison / control”, the “apoptosis induction, CD8” value with CD8+ T cells (setting [4]) stood at 20.9; in the data set on CD8+ T cells (setting [5]) it was 14.7. Also, the “apoptosis induction, CD4” value is 15.7 with CD4+ T cells (setting [4]) and 9.6 in the data set with CD4+ T cells (setting [5]). Also, the “apoptosis induction, CD4 T Cell Resting” value in the data set on CD4 T Cell is reported as 10.3. Further, the “apoptosis induction, CD8 T Cell Resting” value with CD8 T Cell is given as 15.9. Further, in the data set on MM-RU, the aggregation result is given as “No obvious aggregation”.

`OC[C@H]1O[C@@H](O[C@H]2[C@H](O)[C@@H](O)C(O)O[C@@H]2CO)[C@H](O)[C@@H](O)[C@H]1O` (some centres unmarked) [lactose, Lactose]: in the data set with MOLT-4 cells [1], the “effect on pro-apoptosis activity by Gal-9” value is “almost completely inhibited”. For the same molecule, in the data set on MOLT-4 cells [3], the “effect on calcium influx induced by Gal-9” value is “inhibited”.

For the molecule “Galectin-1: galectin used for comparison / control”, the “apoptosis induction, CD8” value in the data set with CD8+ T cells (setting [4]) was determined as 19; in the data set on CD8+ T cells (setting [5]), 9.6. Further, the “apoptosis induction, CD4” value with CD4+ T cells (setting [4]) is listed as 13.9; in the data set with CD4+ T cells (setting [5]), 8.1. Moreover, in the data set with MM-RU, the aggregation result was “No obvious aggregation”.
